From patent publication US9808456B2, “Piperazine thiazole derivatives useful in the treatment of tauopathies such as Alzheimer's disease” (REMYND NV, priority 2011, dated 2017) come the findings set out here.

The test system of this test is M17_3TAU(P301L) cells. Briefly: Neuroblastoma tauopathy model: inhibition of TAU-induced cytotoxicity (LDH) after retinoic acid differentiation. It counts as cell-based. As to conditions: Homo sapiens, 168 h, inhibition of TAU-induced toxicity, 7 days retinoic acid, LDH readout. The text has this:
A TAU expression plasmid was constructed by sub-cloning the cDNA encoding for human TAU-P301L protein, wherein proline at position 301 is substituted by a leucine residue, into mammalian expression vector pcDNA3.1 resulting in the plasmid pcDNA3.1-TAUP301L. Plasmids pcDNA3.1 and pcDNA3.1-TAU P301L were transfected into human neuroblastoma cells (BE-M17; ATCC No. CRL2267™) using lipofectamine reagent and subsequently, independent clonal cell lines with the plasmids stably integrated into the genome were selected by antibiotic resistance selection (Geneticin (G418)), resulting in cell lines M17.pcDNA3 and M17_3TAUP301L. Expression of the TAUP301L gene in the M17_3TAUP301L cells was confirmed by Western blot analysis.
Differentiation of the cells with RA leads to phosphorylation and subsequent aggregation of TAU, inducing a tauopathy in these cells. Cytotoxicity of cells was measured by quantification of lactate dehydrogenase (LDH) levels. In dead cells LDH is leaked out of the cells into the medium due to a loss of plasma-membrane integrity.
Briefly, 3 days preceeding the experiment pre-cultures of M17.pcDNA3 and M17_3TAU(P301L) cells were prepared, starting from a stock culture, at a density of 50.000-100.000 cells/cm2 in detection medium (Optimem Reduced Serum without phenol red (Gibco, Cat. 31985-047) supplemented with 1% fetal calf serum (FCS), 1 mM sodium pyruvate, 1× non-essential amino acids (NEAR), 500 μg/ml G418 and 0.5× antibiotic/antimycotic (ABAM)). At the day of the experiment these precultures were diluted to ˜0, 1.106 cells/ml in detection medium without FCS and 60 μL of this suspension is dispensed per well into a 96-well microtiter plate. After 3 hours of incubation at 37° C./5% CO2 an equal volume of detection medium containing 2.5 μM RA was added and subsequently incubated for 7 days at 37° C./5% CO2. After 7 days, LDH activity was determined using the Promega Cytotox 96 Non-Radioactive cytotoxicity assay (Cat. G1780), according the manufacturer's instructions. Cytotoxicity is measured as the ratio of LDH increase in the supernatant divided by the LDH increase in the total cell suspension (sum of the LDH measured in cells and supernatant).
The M17_3TAU(P301L) cell line makes it possible to assess the ability of novel compounds to inhibit TAU-induced cytotoxicity. […] Compounds were tested for their ability to hamper TAU-induced toxicity at different concentrations, ranging from low non-effective concentrations to high potent concentrations. Afterwards, the dose-dependent inhibition curve was used to calculate their EC50 (Table III).

Turning to `COc1ccc(CCN2CCN(c3nc(N4CCC(F)(F)CC4)ns3)CC2)cc1` [Example 1, 1-[3-(4,4-Difluoro-piperidin-1-yl)-[1,2,4]thiadiazol-5-yl]-4-[2-(4-methoxy-phenyl)-ethyl]-piperazine], a half-maximal effect (EC50) was put at 0.6 nM. Take `FC1(F)CCN(c2nsc(N3CCN(CCc4ccc(Cl)cc4)CC3)n2)C1` [Example 3, 1-[2-(4-Chloro-phenyl)-ethyl]-4-[3-(3,3-difluoro-pyrrolidin-1-yl)-[1,2,4]thiadiazol-5-yl]-piperazine]: the concentration for a half-maximal effect (EC50) (usually the concentration giving half of the maximal effect) was 8.8 nM. Under `FC1CCN(c2nsc(N3CCN(CCc4ccc(Cl)cc4)CC3)n2)CC1` [Example 4, 1-[2-(4-Chloro-phenyl)-ethyl]-4-[3-(4-fluoro-piperidin-1-yl)-[1,2,4]thiadiazol-5-yl]-piperazine] stands 84.6 nM; under `FC(F)(F)C1CCN(c2nsc(N3CCN(CCc4ccc(Cl)cc4)CC3)n2)CC1` [Example 5, 1-[2-(4-Chloro-phenyl)-ethyl]-4-[3-(4-trifluoromethyl-piperidin-1-yl)-[1,2,4]thiadiazol-5-yl]-piperazine], 47 nM. Under `Clc1ccc(CCN2CCN(c3nc(N4CCCCC4)ns3)CC2)cc1` [Example 6, 1-[2-(4-Chloro-phenyl)-ethyl]-4-(3-piperidin-1-yl-[1,2,4]thiadiazol-5-yl)-piperazine] stands 64.1 nM; under `Clc1ccc(CCN2CCN(c3nc(NCC4CC4)ns3)CC2)cc1` [Example 7, (5-{4-[2-(4-Chloro-phenyl)-ethyl]-piperazin-1-yl}-[1,2,4]thiadiazol-3-yl)-cyclopropylmethyl-amine], 17.2 nM. `Clc1ccc(CCN2CCN(c3nc(NC4CCOCC4)ns3)CC2)cc1` [Example 8, (5-{4-[2-(4-Chloro-phenyl)-ethyl]-piperazin-1-yl}-[1,2,4]thiadiazol-3-yl)-(tetrahydro-pyran-4-yl)-amine]: the response was half-maximal at 52.2 nM (EC50). Under `Clc1ccc(CCN2CCN(c3nc(NC4CCCCC4)ns3)CC2)cc1` [Example 9, (5-{4-[2-(4-Chloro-phenyl)-ethyl]-piperazin-1-yl}-[1,2,4]thiadiazol-3-yl)-cyclohexyl-amine] stands 9.4 nM; under `Fc1ccc(CCN2CCN(c3nc(N4CCC(F)(F)CC4)ns3)CC2)cc1F` [Example 10, 1-[2-(3,4-Difluoro-phenyl)-ethyl]-4-[3-(4,4-difluoro-piperidin-1-yl)-[1,2,4]thiadiazol-5-yl]-piperazine], 12.1 nM; under `Fc1ccc(CCN2CCN(c3nc(N4CCC(F)(F)C4)ns3)CC2)cc1F` [Example 11, 1-[2-(3,4-Difluoro-phenyl)-ethyl]-4-[3-(3,3-difluoro-pyrrolidin-1-yl)-[1,2,4]thiadiazol-5-yl]-piperazine], 11.4 nM. Regarding `Fc1ccc(CCN2CCN(c3nc(N4CCC(F)CC4)ns3)CC2)cc1F` [Example 12, 1-[2-(3,4-Difluoro-phenyl)-ethyl]-4-[3-(4-fluoro-piperidin-1-yl)-[1,2,4]thiadiazol-5-yl]-piperazine], the EC50 was 33.3 nM.

In the case of `Fc1ccc(CCN2CCN(c3nc(N4CCC(C(F)(F)F)CC4)ns3)CC2)cc1F` [Example 13, 1-[2-(3,4-Difluoro-phenyl)-ethyl]-4-[3-(4-trifluoromethyl-piperidin-1-yl)-[1,2,4]thiadiazol-5-yl]-piperazine], the half-maximal effective concentration (EC50) amounted to 15.3 nM.

For `Fc1ccc(CCN2CCN(c3nc(N4CCCC4)ns3)CC2)cc1F` [Example 14, 1-[2-(3,4-Difluoro-phenyl)-ethyl]-4-(3-pyrrolidin-1-yl-[1,2,4]thiadiazol-5-yl)-piperazine], a half-maximal effect (EC50) was put at 176 nM.

Molecule `Fc1ccc(CCN2CCN(c3nc(NCC4CC4)ns3)CC2)cc1F` [Example 15, Cyclopropylmethyl-(5-{4-[2-(3,4-difluoro-phenyl)-ethyl]-piperazin-1-yl}-[1,2,4]thiadiazol-3-yl)-amine] yielded a 50% effective concentration (EC50) of 38.4 nM. Under `Fc1ccc(CCN2CCN(c3nc(NC4CCOCC4)ns3)CC2)cc1F` [Example 16, (5-{4-[2-(3,4-Difluoro-phenyl)-ethyl]-piperazin-1-yl}-[1,2,4]thiadiazol-3-yl)-(tetrahydro-pyran-4-yl)-amine] stands 34.5 nM.
